Laboratory results taken from patent publication US12600725B2 (Memorial Sloan-Kettering Cancer Center, priority 2013, dated 2026).
“Also recorded” adds a separate entry of the source. Like-named read-outs stand apart in the source and are kept apart here.

Assays:
C2C12 cells = experiment: Viability of C2C12 cells visualized by light microscopy; assay type: cell-based, mouse; conditions: 24 h
[1] = test system: IGF-II secretion by differentiated C2C12 cells; experiment: C2C12 differentiation and IGF-II secretion assay; assay type: cell-based, mouse; conditions: 24 hrs treatment
Source text: C2C12 differentiation and IGF-II secretion assay (Wanderling, S. et al. GRP94 is essential for mesoderm induction and muscle development because it regulates insulin-like growth factor secretion. Mol. Biol. Cell 18, 3764-75 (2007); Ostrovsky, O., Ahmed, N.T. & Argon, Y. The chaperone activity of GRP94 toward insulin-like growth factor II is necessary for the stress response to serum deprivation. Mol. Biol. Cell 20, 1855-64 (2009)). C2C12 cells were maintained and cultured in DMEM in the presence of 10% FBS and 1% penicillin/streptomycin (Culture medium). C2C12 is an immortal line of mouse skeletal myoblasts originally derived from satellite cells from the thigh muscle of a two month old female mouse donor. These cells differentiate well into myocytes under appropriate culture conditions. […] Secreted IGF-II was quantified by using IGF-II mouse ELISA kit (Abcam, AB100696) according to the manufacturer's instructions. […] The bound IGF-II was detected with a biotinylated anti-IGF-II antibody. After the sequential incubation with HRP conjugated streptavidin, TMB One-step substrate reagent and the Stop solution, the absorbance was measured at 450 nm. The secreted IGF-II was quantified against a standard curve generated with recombinant IGF-II provided by the kit.

[2] = test system: Toll-like receptor 9 (TLR9) trafficking in HEK293 cells transfected with HA-TLR9; experiment: TLR9-trafficking assay; assay type: cell-based, human; conditions: 24 h treatment
Method: TLR^9-trafficking assay (Yang, Y. et al. Heat shock protein gp96 is a master chaperone for toll-like receptors and is important in the innate function of macrophages. Immunity 26, 215-26 (2007)). HEK 293T cells were transfected with pUNO-hTLR9-HA (Invivogen) using X-tremgene HP (Roche) according to the manufacturer's instructions. At 24 hrs post-transfection, cells were split onto cell culture chamber slides (Lab-Tek). Cells were then treated for 24 hrs with indicated compound at varying concentrations. After treatment, cells were fixed for 20 min in 4% paraformaldehyde in PBS, permeabilized with 0.1% Triton-X 100 in PBS for 10 min, blocked with 3% BSA in PBS for 30 min, followed by staining for 1 hr with an anti-HA antibody (Abcam, ab9110) or a normal rabbit IgG. Cells were washed with PBS, stained with an anti-rabbit-Cy3 antibody (Invitrogen) and finally mounted in the dark at 4° C. with Prolong Gold Antifade reagent (with DAPI). Cells were visualized under a confocal microscope (Leica Upright Confocal SP5). Fluorescence intensity was quantified using MetaMorph Microscopy Automation and Image Analysis Software (Molecular Devices Inc.) and normalized to the cell number.

[3] = test system: Hsp70 induction and AKT degradation (cytosolic Hsp90 hallmarks) in C2C12 cells; experiment: Western blot of Hsp70 induction and AKT degradation in C2C12 cells; assay type: cell-based, mouse; conditions: 24 hrs
Method: Cell fractionation and immunoblotting. Cells were either treated with DMSO (vehicle) or indicated compounds for 24 hr and lysed in RIPA buffer (50 mM Tris-HCl, pH 7.4, 150 mM NaCl, 0.5% sodium deoxycholate and 0.5% NP40) supplemented with cocktail protease inhibitors (Roche) to produce whole cell lysates. Lysates for cytosol and membrane fractions were harvested using ProteoExtract Subcellular Proteome Extraction Kit (Calbiochem) following the manufacturer's instructions. Protein concentrations were determined using BCA kit (Pierce) according to the manufacturer's instructions. […] After washing off the excess antibodies, the membranes were incubated with the corresponding horseradish peroxidase (HRP) conjugated secondary antibody. Blots were visualized by autoradiography using the Enhanced Chemiluminescence Detection System (GE Healthcare) according to manufacturer's instructions. For all gels 3-actin was used as a protein loading control.

[4] = test system: Hsp70 induction in HEK293 cells; experiment: Hsp70 induction in HA-TLR9 transfected HEK293 cells; assay type: cell-based, human; conditions: 24 h
Method: Cell fractionation and immunoblotting. Cells were either treated with DMSO (vehicle) or indicated compounds for 24 hr and lysed in RIPA buffer (50 mM Tris-HCl, pH 7.4, 150 mM NaCl, 0.5% sodium deoxycholate and 0.5% NP40) supplemented with cocktail protease inhibitors (Roche) to produce whole cell lysates. Lysates for cytosol and membrane fractions were harvested using ProteoExtract Subcellular Proteome Extraction Kit (Calbiochem) following the manufacturer's instructions. Protein concentrations were determined using BCA kit (Pierce) according to the manufacturer's instructions. The protein lysates ([…]) were electrophoretically resolved by SDS-PAGE, transferred onto nitrocellulose membranes and probed with the indicated primary antibodies against: HER^2 (Zymed, 28004), Hsp70 (Stressgen, SPA-810), Grp94 (Stressgen, SPA-850), Hsp90α (Abcam, Ab2928), Hsp90β (StressMarq, SMC-107B), Grp78 (Cell Signaling, 3183), Raf-1 (Santa Cruz, sc-133), phospho-Raf-1 (Cell Signaling, 9421), MEK1/2 (Cell Signaling, 8727), phospho-MEK1/2 (Cell Signaling, 9154), ERK1/2 (Cell Signaling, 4695), phospho-ERK1/2 (Cell Signaling, 4370), AKT (Cell Signaling, 9272), GM130 (Cell Signaling, 2296), Flotillin 2 (Cell Signaling, 3436), Histone H4 (Cell Signaling, 2592), Histone H1 (Santa Cruz, sc-8030), Caspase 3 (Cell Signaling, 9665), cleaved PARP (Promega, G7341), a-tubulin (Sigma, T5168) and 3-actin (Sigma, A1978). After washing off the excess antibodies, the membranes were incubated with the corresponding horseradish peroxidase (HRP) conjugated secondary antibody. Blots were visualized by autoradiography using the Enhanced Chemiluminescence Detection System (GE Healthcare) according to manufacturer's instructions. […]
TLR^9-trafficking assay (Yang, Y. et al. Heat shock protein gp96 is a master chaperone for toll-like receptors and is important in the innate function of macrophages. Immunity 26, 215-26 (2007)). […] Fluorescence intensity was quantified using MetaMorph Microscopy Automation and Image Analysis Software (Molecular Devices Inc.) and normalized to the cell number.

[5] = test system: HER2 at the plasma membrane of SKBr3 cells; experiment: Immunofluorescence of HER2 architecture at the plasma membrane; assay type: cell-based
Method: We next investigated the biological significance of the unique association of HER^2 with Grp94 at the plasma membrane of SKBr3 cells. Because the Grp94 inhibitors described here target the ATP-binding pocket of Grp94, they affect Grp94 chaperone activity. Therefore we hypothesized that Grp94 may act on HER^2 at the plasma membrane to stabilize the protein and to regulate its function.
Immunofluorescence. Cells were seeded and grown onto culture slides (BD Falcon) for 24 hrs. After washing with cold PBS, cells were fixed by treating at 4° C. for 20 min with 4% paraformaldehyde in PBS, permeabilized with 0.1% Triton X-100 in PBS containing 10% FBS for 10 min, and blocked with 2% BSA for 1 hr. After washing for four times with PBS, primary antibodies were added onto the chambers and cell were incubated overnight at 4° C., washed again with PBS followed by incubation with the secondary antibody for 1 hr at room temperature. Cell were washed and then mounted and observed under microscope (Leica Upright Confocal SP5). The primary antibodies used in the assay are against: HER^2 (Zymed, 28004), Grp94 (Stressgen, SPA-850), Hsp70 (Stressgen, SPA-810), LAMP1-FITC (Abcam, ab25406), EEA1 (Abcam, ab70521), 58K Golgi-FITC (Abcam, ab27043) and Calnexin (BD, 610523).

PANC-1 cells = experiment: Apoptosis assessment (Annexin V / 7AAD); assay type: cell-based
Source text: Annexin V Apoptosis with 7-AAD has been specifically designed for the identification of apoptotic and necrotic cells. Annexin V (or Annexin A5) is a member of the annexin family of intracellular proteins that binds to phosphatidylserine (PS) in a calcium-dependent manner. PS is normally only found on the intracellular leaflet of the plasma membrane in healthy cells, but during early apoptosis, membrane asymmetry is lost and PS translocates to the external leaflet. Fluorochrome-labeled Annexin V can then be used to specifically target and identify apoptotic cells. Annexin V binding alone cannot differentiate between apoptotic and necrotic cells. To help distinguish between the necrotic and apoptotic cells 7-amino-actinomycin D (7-AAD) is used. Early apoptotic cells will exclude 7-AAD, while late stage apoptotic cells will stain positively, due to the passage of these dyes into the nucleus where they bind to DNA. 7-AAD (7-amino-actinomycin D) has a high DNA binding constant and is efficiently excluded by intact cells. It is useful for DNA analysis and dead cell discrimination during flow cytometric analysis. When excited by 488 laser light, 7-AAD fluorescence is detected in the far red range of the spectrum (650 nm long-pass filter).
Cell cycle and apoptosis assessment. Cell cycle and apoptosis were assessed by flow cytometry after single staining with propidium iodide (PI, BD Pharmingen) or double staining with AnnexinV-FITC (BD Pharmingen) and 7AAD (BD Pharmingen), respectively. Specifically, for cell cycle analysis, cells were washed twice with cold PBS and fixed in 70% ethanol overnight at 4° C. Fixed cells were collected at 1800 rpm for 10 min and stained with PBS containing PI and DNase-free RNase A (Sigma-Aldrich) for 1 h at room temperature in the dark. DNA content was measured by BD LSRII flow cytometer and cell further analyzed using program of cell cycle analysis in FloJo (Ashland, OR). The chicken erythrocyte nuclei singlets (CEN, Biosure) were used as the reference. For apoptosis assessment, live cells were collected, washed twice with cold PBS, resuspended in Binding Buffer and stained with AnnexinV-FITC and 7AAD for 15 min at room temperature in the dark. Signals from FL1 and FL3 channels were collected by MACSQuant analyzer and further analyzed using FloJo. Early apoptosis was defined as AnnexinV+/7AAD−, and late apoptosis was observed as AnnexinV+/7AAD+.

97 kinases = experiment: Kinase screen (Discoverx scanEDGE / KINOMEscan); assay type: binding; conditions: tested at 10 uM
Trap-1 [6] = target: T1, Trap-1 (Homo sapiens, UniProt Q12931); conditions: read-out: TRAP-1
T1 sequence (Q12931 60-704): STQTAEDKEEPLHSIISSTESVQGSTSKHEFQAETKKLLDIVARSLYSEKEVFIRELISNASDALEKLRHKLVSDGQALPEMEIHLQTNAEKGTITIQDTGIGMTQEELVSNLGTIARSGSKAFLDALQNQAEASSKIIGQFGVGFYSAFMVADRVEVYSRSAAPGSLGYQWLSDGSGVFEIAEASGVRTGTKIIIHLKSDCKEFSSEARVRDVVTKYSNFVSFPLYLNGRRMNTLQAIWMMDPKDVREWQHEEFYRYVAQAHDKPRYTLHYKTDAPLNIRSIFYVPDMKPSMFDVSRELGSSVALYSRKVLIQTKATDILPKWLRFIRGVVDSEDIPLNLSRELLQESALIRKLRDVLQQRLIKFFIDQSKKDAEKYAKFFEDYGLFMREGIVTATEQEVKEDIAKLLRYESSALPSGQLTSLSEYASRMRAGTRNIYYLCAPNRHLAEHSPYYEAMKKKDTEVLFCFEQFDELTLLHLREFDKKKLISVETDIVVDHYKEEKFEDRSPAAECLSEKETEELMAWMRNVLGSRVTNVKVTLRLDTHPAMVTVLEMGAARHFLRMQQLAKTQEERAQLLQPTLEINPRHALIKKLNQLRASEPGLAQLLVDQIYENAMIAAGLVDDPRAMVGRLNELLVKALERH

Hsp90α [7] = target: T2, Hsp90α (Homo sapiens, UniProt P07900); experiment: biochemical
Grp94 = Grp94 (Canis lupus familiaris, UniProt P41148); conditions: read-out: Grp94; FP competition, 6 nM Cy3B-GM, 10 nM protein, 4° C. for 24 h
Grp94, sequence (P41148 with tags, fused parts or gaps DELINS287-327GGGG): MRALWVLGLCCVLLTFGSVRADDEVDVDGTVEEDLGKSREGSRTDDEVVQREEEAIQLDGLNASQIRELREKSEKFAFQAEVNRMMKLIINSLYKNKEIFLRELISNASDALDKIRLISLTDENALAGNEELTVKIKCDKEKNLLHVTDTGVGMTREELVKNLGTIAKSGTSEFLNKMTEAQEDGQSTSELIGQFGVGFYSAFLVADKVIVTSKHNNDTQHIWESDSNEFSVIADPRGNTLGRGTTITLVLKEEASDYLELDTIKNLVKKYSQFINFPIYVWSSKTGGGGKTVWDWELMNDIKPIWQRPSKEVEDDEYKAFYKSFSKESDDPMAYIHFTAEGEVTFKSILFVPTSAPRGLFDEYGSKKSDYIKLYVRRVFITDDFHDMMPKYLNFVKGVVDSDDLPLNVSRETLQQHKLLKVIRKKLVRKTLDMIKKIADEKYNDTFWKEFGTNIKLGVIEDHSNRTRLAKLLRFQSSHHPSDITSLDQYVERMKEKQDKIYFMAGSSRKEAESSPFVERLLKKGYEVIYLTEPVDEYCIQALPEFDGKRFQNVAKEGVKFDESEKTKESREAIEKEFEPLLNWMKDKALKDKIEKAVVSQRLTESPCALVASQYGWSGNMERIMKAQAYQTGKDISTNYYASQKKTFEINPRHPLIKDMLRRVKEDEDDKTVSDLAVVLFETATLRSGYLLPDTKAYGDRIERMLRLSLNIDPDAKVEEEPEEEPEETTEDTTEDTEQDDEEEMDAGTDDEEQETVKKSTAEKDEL

Hsp90β = Hsp90β (Homo sapiens, UniProt P08238)
Hsp90β, sequence (P08238 whole entry): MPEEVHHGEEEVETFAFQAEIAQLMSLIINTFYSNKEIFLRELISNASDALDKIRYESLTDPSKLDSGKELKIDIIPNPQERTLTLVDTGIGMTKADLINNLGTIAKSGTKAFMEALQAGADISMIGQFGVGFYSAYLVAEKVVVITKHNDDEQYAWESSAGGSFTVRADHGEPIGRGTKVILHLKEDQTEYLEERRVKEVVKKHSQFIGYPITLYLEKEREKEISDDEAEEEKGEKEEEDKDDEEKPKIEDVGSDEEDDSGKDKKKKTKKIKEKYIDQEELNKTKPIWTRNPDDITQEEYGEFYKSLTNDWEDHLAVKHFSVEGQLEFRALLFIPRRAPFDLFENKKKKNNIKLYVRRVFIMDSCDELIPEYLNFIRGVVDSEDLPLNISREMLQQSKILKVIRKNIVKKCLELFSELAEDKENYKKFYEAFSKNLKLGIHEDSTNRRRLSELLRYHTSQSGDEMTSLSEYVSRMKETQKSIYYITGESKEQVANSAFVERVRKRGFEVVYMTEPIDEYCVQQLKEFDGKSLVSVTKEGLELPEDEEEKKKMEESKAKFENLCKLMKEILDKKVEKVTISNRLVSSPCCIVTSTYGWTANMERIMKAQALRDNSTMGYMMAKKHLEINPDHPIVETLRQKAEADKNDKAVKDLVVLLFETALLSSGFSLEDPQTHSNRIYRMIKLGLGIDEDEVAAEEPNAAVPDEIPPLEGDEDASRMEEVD

[8] = test system: Human Umbilical Vein Endothelial Cells (HUVECs); experiment: Angiogenesis studies with HUVEC cells; assay type: cell-based
[9] = test system: TLR9 ligand CpG DNA induced TNF-α production in RAW 264.7 macrophages; experiment: TNFα ELISA, CpG DNA stimulated macrophages; assay type: cell-based, mouse
Hsp90α [10] = target: T2, Hsp90α
Trap-1 [11] = target: T1, Trap-1; conditions: relative to Hsp90
[12] = test system: PANC1 EGFR-overexpressing cells; conditions: Mol Cancer Ther 2006; 5:2051-2059; cited from earlier work

Question: For COC1=C2C[C@@H](C)C[C@H](OC)[C@H](O)[C@@H](C)/C=C(\C)[C@H](OC(N)=O)[C@@H](OC)/C=C\C=C(/C)C(=O)NC(=CC1=O)C2=O [GM, geldanamycin, reference compound], which “toxicity to C2C12 cells” value (C2C12 cells) is on record?
Answer: Its value is “cell killing”.

Question: Which IGF-II secretion [1] does the source give for COc1cc(Cc2nc3c(N)nc(F)nc3n2CCOC(C)C)cc(OC)c1OC [PU-29F] here?
Answer: Its IGF-II secretion is “minimally effecting”.

Question: What about the TLR9 trafficking [2] of the same compound?
Answer: The TLR9 trafficking was “minimally effecting; also recorded: fails to inhibit TLR^9 trafficking”.

Question: What about the AKT degradation [3] of the same compound?
Answer: The AKT degradation was “degradation of AKT; also recorded: degrade AKT”.

Question: And the Hsp70 induction [3]?
Answer: Its Hsp70 induction is “dose-dependent increase in Hsp90 levels; also recorded: induce Hsp70”.

Question: And the Hsp70 induction [4]?
Answer: Its Hsp70 induction is “induces Hsp70”.

Question: And the “effect on HER2 architecture at the plasma membrane” value [5]?
Answer: Its value is “failed to disturb the membrane HER^2 architecture”.

Question: What about the induction of apoptosis (PANC-1 cells) of the same compound?
Answer: The induction of apoptosis was “very little effect”.

Question: With C#CCCCn1c(Sc2ccc(Cl)cc2Cl)nc2c(N)ncnc21 [PU-H39] as the compound, how does the “effect on the tested 97 kinases” value (97 kinases) read?
Answer: The value was “no significant effect”.

Question: What about the IC50 (Trap-1 [6]) of the same compound?
Answer: Its IC50 is 145 ± 13.4 µM.

Question: What about the IC50 (Hsp90α [7]; FP competition, 6 nM Cy3B-GM, 10 nM protein, 4° C. for 24 h) of the same compound?
Answer: Its IC50 is over 300 µM.

Question: And the IC50 (Grp94)?
Answer: Its IC50 is 0.12 ± 0.04 µM.

Question: And the IC50 (Hsp90β)?
Answer: The IC50 was over 300 µM.

Question: What does the source list for C#CCCCn1cnc(N)c2nc(Sc3ccc(C)cc3C)nc1-2 [PU-H54]?
Answer: HUVEC cell proliferation [8]: does not affect substantially the cell proliferation; angiogenic-like transformation of HUVECs induced by Grp94 and by peak 2 [8]: able to change the angiogenic-like transformation of HUVECs; also recorded: displays an anti-angiogenic effect; also recorded: inhibited; CpG DNA induced TNF-α production [9]: inhibited this response in a concentration dependent manner; also recorded: inhibit; affinity for Hsp90 (Hsp90α [10]): low affinity; IC50 (Trap-1 [6]): 54.1 ± 4.6 µM; IC50 (Hsp90α [7]): > 250 µM; IC50 (Hsp90β): > 250 µM

Question: For CC(C)NCCCn1c(Sc2cc3c(cc2I)OCO3)nc2c(N)ncnc21 [PU-H71], which TLR9 trafficking [2] is on record?
Answer: Its TLR9 trafficking is “inhibit TLR^9 trafficking”.

Question: And the AKT degradation [3]?
Answer: The AKT degradation was “degrade AKT”.

Question: What about the Hsp70 induction [3] of the same compound?
Answer: The Hsp70 induction was “induce Hsp70”.

Question: What about the Hsp70 induction [4] of the same compound?
Answer: Its Hsp70 induction is “induce Hsp70”.

Question: And the induction of apoptosis (PANC-1 cells)?
Answer: Its induction of apoptosis is “very little effect”.

Question: And the “decrease in binding efficacy for Trap-1” value (Trap-1 [11])?
Answer: Its value is 5 fold.

Question: Which “reported resistance of PANC1 cells” value [12] does the source give for C#Cc1cccc(Nc2ncnc3cc(OCCOC)c(OCCOC)cc23)c1 [erlotinib] here?
Answer: Its value is “resistant”.
